This note sets out measurements from US20120077803A1, “Uses Of NK Receptor Antagonists” (NOVARTIS AG, priority 2009, published 2012).

Test [1] has as its system dogs with flea allergic dermatitis. Kind of test: Skin lesion scores (total lesion score) in dogs with flea-allergic dermatitis. The class given is in vivo, Beagle dogs. Particulars: Prednisolone 10 mg/day orally. The protocol:
(§1) Flea-allergic laboratory Beagle dogs are infested with fleas. Fifty (50) Ctenocephalides felis fleas, 18 to 20 days old are released on the back of every dog on D1. Dogs are combed 48 hours (D3) after infestation to reduce the number of fleas (reduction of allergen charge).
Skin observations: before flea infestations (D −1) all dogs are typically examined to establish a baseline score for erythema, papules, crusts, scales, alopecia, and excoriation. From D1, daily clinical observations are performed. Each lesion is typically graded using a scale from 0 to 3:
0=no signs 1=mild 2=moderate 3=severe
(§2) Skin lesions are allowed to develop until the total lesion score reaches ˜20. The Test Compound is then given orally at 50, 150 and 300 mg/day, divided into 2 doses, for 5 days. Prednisolone (10 mg/day, orally) is used as a comparator.
Erythema: is typically an acute clinical sign of cutaneous inflammation defined as redness of the skin caused by capillary congestion which can be aggravated by scratching. Excoriation: is typically a punctuate or linear abrasion produced by mechanical means, usually involving only the epidermis but not uncommonly reaching the papillary dermis. […] Papule: is typically a circumscribed, solid elevation with no visible fluid, varying in size from a pinhead to 1 cm. […], formed when there is a high break in the follicle wall. In the presence of bacteria, papules become pustules. Crusts: are typically dried serum, pus, or blood usually mixed with epithelial and sometimes bacterial debris. Scales: are dry or greasy laminated masses of keratin.
(§3) Lesion scores and Actical™ measurement values are typically observed on the following days: • Pre-value: before challenge with fleas • the day of challenge with fleas (Actical™ measurements only); • D1: the day when the total lesion score reached a sufficiently high value (average lesion score 20) and treatment of the animal started. • D2 to D6,
(§4) In the treatment group, lesion scores were taken from 8 dogs. Actical™ measurements were also taken from 6 of these dogs.
• Erythema*, • Excoriations*, • Papules/pustules • Self induced alopecia^o, and • Scales, • Erythema and excoriations are related to pruritus • Self induced alopecia is also related to pruritus but the improvement is […] after several weeks of treatment.
Day 1 of treatment when dogs reached a sufficient lesion score to initiate treatment (average 20). Pre-values (baseline).

The test system is the same in test [2]. In words: Pruritus intensity by Actical activity monitors in flea allergic dogs. The class given is in vivo, Beagle dogs. To be noted: Prednisolone 10 mg/day orally; for Actical day, mean (standard deviation): 6am-6pm; for Actical night, mean (standard deviation): 6pm-6am. On the procedure: as §1
Pruritus intensity: Pruritus intensity is evaluated using activity monitors (Actical™: Actiwatch™; Cambridge Neuorotechnology Ltd, Papworth Everard, UK) according to Nuttall and McEwan. (Nuttal T and McEwan N, “Objective measurement of pruritus in dogs: a preliminary study using activity monitors”. ESVD, 2006, 17 348-351). The physical activity monitors, mounted on collars, are placed around the dog's neck and tightened to the extent that they more with the skin but not so that they compress the underlying tissues. They were put on the dogs on D −5. […] This typically allows to see the difference in activity when the dogs have fleas and are developing pruritic and inflammatory lesions (i.e. dermatitis) and then again their activity during treatment with either the Test Compound or Prednisolone. The activity monitors are typically removed at the end of each phase on D12. Activity monitors measure the movement average within 15 seconds,
as §2, §3, §4

`C[C@]12C=CC(=O)C=C1CC[C@@H]1[C@@H]2[C@@H](O)C[C@@]2(C)[C@H]1CC[C@]2(O)C(=O)CO` [Prednisolone, reference compound]: the “Total score ctb (total lesion score compared to baseline), mean (standard deviation)” value in test [1] (day 2) was −5.6 (6.3); in test [1] (day 3) it was −7.9 (6.7); in test [1] (day 4), −9.2 (6.3); in test [1] (day 5) it was −9.9 (4.8); in test [1] (day 6), −11.8 (6.1). Besides, the “Actical day, mean (standard deviation)” value in test [2] (day 1 (treatment start)) is given as 74 (20) Average activity counts every 15 secs; in test [2] (day 2), 66 (50) Average activity counts every 15 secs; in test [2] (day 3), 49 (33) Average activity counts every 15 secs; in test [2] (day 4) it was 54 (22) Average activity counts every 15 secs; in test [2] (day 5), 47 (24) Average activity counts every 15 secs; in test [2] (day 6), 41 (14) Average activity counts every 15 secs. The figures for the “Actical day, mean (standard deviation)” value in test [2] (fleas (day of challenge)) and in test [2] (pre (before exposure to fleas)) were 74 (22) Average activity counts every 15 secs and 40 (10) Average activity counts every 15 secs, respectively. In addition, the “Actical night, mean (standard deviation)” value is listed as 8.6 (3.5) Average activity counts every 15 secs in test [2] (Fleas (day of challenge)); 7.9 (4.4) Average activity counts every 15 secs in test [2] (Pre (before exposure to fleas)); 16.2 (2.9) Average activity counts every 15 secs in test [2] (day 1 (treatment start)); 6.8 (4.1) Average activity counts every 15 secs in test [2] (day 2); 5.1 (2.8) Average activity counts every 15 secs in test [2] (day 3); 7.3 (3.3) Average activity counts every 15 secs in test [2] (day 4). In addition, the “Actical night, mean (standard deviation)” value was 4.8 (2.2) Average activity counts every 15 secs in test [2] (day 5) and 5.3 (1.7) Average activity counts every 15 secs in test [2] (day 6).
